The subject of one data set is stomach mucosa. The data set is described as follows: cytoprotective activity in rats (absolute ethanol induced stomach mucosa lesions). The settings on record: for ED50 / Cytoprotection %: rat, oral; for ED50: read-out: ED50 Cytoprotection. Format: in vivo, Sprague-Dawley rats. Here is the method: A number of the 13,14-didehydro-15-oxo-prostaglandin analogues have been tested for cytoprotective activity in rats. In this test, Sprague-Dawley rats were fasted for 24 hours prior to the pretreatment. […] The control animals were given 2.5 ml of the vehicle, without prostaglandin analogue. A half hour later after the pretreatment, absolute ethanol was administered orally to the animals, in a dose of 10 mL per kg body weight. One hour later the animals were sacrificed, their stomachs dissected out, opened along the greater curvature and the mucosa examined for lesions. The average lesion length is expressed as percentage of the average lesion length found in the stomach mucosa of control animals.
Importantly, this test measures the active cytoprotective properties of the prostaglandin analogues, independent of the gastric secretion inhibition that these compounds may or may not show. The test is discussed more fully by Robert et al., Gastroenterology 77 (1979) 433, incorporated herein by reference.

The nature of data set [1]: enteropooling assay (diarrheogenic effect, Robert). It counts as in vivo. To be noted: in vivo; for selectivity ratio: enteropooling dose relative to ED50 cytoprotection, defined in drawing 10, read-out: TI (therapeutic index). The text has this: (§1) One of the most important side-effects of prostaglandins and prostaglandin analogues is their diarrheogenic effect. An assay was developed by Robert to test the diarrheogenic properties of prostaglandins and prostaglandin analogues. The test quantitatively determines the amount of "enteropooling", i.e. the accumulation of fluid into the small intestine.

In the next data set the test system is small intestine. In words: enteropooling assay (diarrheogenic effect, Robert). It counts as in vivo.
Source text: as §1

Another data set has as its system pregnant quinea pigs. In words: abortificative effect in pregnant guinea pigs. Format: in vivo. The settings on record: 25 mg/kg oral, days 43 and 44 of gestation, 6 animals. Here is the method: Another important side effect of natural prostaglandins and prostaglandin analogues is their abortificative effect. Compound 1 was tested for this effect as follows.
A further data set relates to rat fundic strip. The data set is described as follows: smooth muscle contraction, rat fundic strip assay. On the procedure:
The smooth muscle contraction potency of compound 1 was tested in the rat fundic strip assay, described by W. L. M. Perry in "Pharmacological Experiments on Isolated Preparations," 2nd ed. (1970), pp. 88-89, Churchill L. Livingstone, publisher.

Data set [2] deals with gastric ulceration. The data set is described as follows: gastric ulceration in patients, capsules administered twice daily. Format: in vivo. To be noted: patient ca. 70 kg.
Data set [3] relates to gastric ulceration. The data set is described as follows: gastric ulceration in arthritis patients receiving aspirin, tablets four times daily. Format: in vivo. The settings on record: tablets orally four times daily; patients with arthritis on 1000 mg aspirin daily.
For data set [4] the following is noted: rat model; compared to natural prostaglandin PGE2; cited from earlier work.
The conditions of data set [5]: metabolism / intragastric dehydrogenation at C15; cited from earlier work.
In the next data set the test system is PGDH. To be noted: Gandolfi et al.; cited from earlier work.
For data set [6] the following is noted: background art; cited from earlier work.
The mark [7] stands for this setting: dose 0.5 mg/kg, negative = lesions worse than control.

Molecules are shown by their SMILES.

As a reminder, the ED50 is the dose at which the effect has come halfway, by size or by number of responders. As usually defined, the EC50 is the concentration giving half of the maximal effect. The low end stands for greater potency, the high end for weaker potency.

For `CCCCCC(=O)C#C[C@H]1CCC(=O)[C@@H]1CCCCCCC(=O)O` (relative stereo) [Compound 1, 11-Deoxy-13,14-didehydro-15-oxo PGE1], the ED50 in the data set on stomach mucosa is 0.1 mg/kg. In data set [1], the TD50 amounted to 25 mg/kg and the selectivity ratio stood at 250. Moreover, the “diarrheogenic effect” value in the data set with small intestine (compared to PGE2 and PGE2 analogues) is reported as “very low diarrheogenic effect”. In the data set with small intestine (compared with the other compounds of table 2), the “therapeutic index” value is given as “significantly higher”. Further, the abortion induced result in the data set with pregnant quinea pigs is given as “in none of the animals did the dose of compound 1 induce abortion”. The “EC50 for smooth muscle contraction relative to PGE2” value in the data set with rat fundic strip (compound 1 EC50 higher than that of PGE2) is given as “three orders of magnitude higher”. For the same compound, in the data set on rat fundic strip (compound 1 EC50 higher than that of PGF2α and PGE1), the “EC50 for smooth muscle contraction relative to PGF2α and PGE1” value is “two orders of magnitude higher”. For the same compound, a half-maximal response in the data set on rat fundic strip (rat fundic strip) (EC50) required 5 µM.
For the compound `CCCCCC(=O)/C=C/[C@H]1CCC(=O)[C@@H]1CCCCCCC(=O)OC` (relative stereo) [PGE1 trans oxo (a) (d)], the Cytoprotection % with stomach mucosa (setting [7]) is on record as -22%; with stomach mucosa (dose 3 mg/kg), 52%.
As to `CCCCCC(=O)C#C[C@H]1CCC(=O)[C@@H]1CCCCCCC(=O)OC` (relative stereo) [PGE1 triple oxo (a) (d)], the Cytoprotection % is given as 39% with stomach mucosa (setting [7]), 81% with stomach mucosa (dose 1 mg/kg), 78% in the data set with stomach mucosa (dose 3 mg/kg) and 96% in the data set with stomach mucosa (dose 5 mg/kg).
Consider `CCCCCC(=O)C#C[C@H]1[C@H](O)CC(=O)[C@@H]1CCCCCCC(=O)O` [13,14-didehydro-15-oxo PGE1], for which, in the data set on gastric ulceration [2], the “reduction of gastric ulceration” value is on record as “substantially reduce gastric ulceration”.
Regarding `CCCCCC(=O)C#C[C@@H]1[C@@H](C/C=C\CCCC(=O)O)[C@@H](O)C[C@H]1O` [13,14-didehydro-15-oxo-PGF2α], the “reduction of incidence of gastric ulceration” value with gastric ulceration [3] is recorded as “effectively reduces the incidence of gastric ulceration”.
For `CCCCC[C@@](C)(O)/C=C/[C@H]1[C@H](O)CC(=O)[C@@H]1C/C=C\CCCC(=O)O` [15(R)-15-methyl PGE2], in data set [1], the TD50 turned out to be 0.005 mg/kg and the selectivity ratio lay in the range of 25 to 100. Besides, the “ED50 for cytoprotection” value in data set [4] was “lower value of the ED50”. The “stability” value in [5] is on record as “better stability”.
Turning to `CCCCC[C@](C)(O)/C=C/[C@H]1[C@H](O)CC(=O)[C@@H]1C/C=C\CCCC(=O)O` [15(S),15-methyl PGE2], the “stability” value in data set [5] was “more stable than PGE2 itself”.
As to `CCCC[C@@H](C)[C@H](O)C#C[C@H]1[C@H](O)CC(=O)[C@@H]1C/C=C\CCCC(=O)O` [16(R),16-methyl-13-dehydro PGE2], the “substrate for the enzyme PGDH” value in the data set with PGDH was “not substrates for the enzyme PGDH”. For the same compound, the “gastric anti-ulcer properties / activity” value in data set [6] is listed as “potent gastric anti-ulcer properties”.
For `CCCC[C@H](C)[C@H](O)C#C[C@H]1[C@H](O)CC(=O)[C@@H]1C/C=C\CCCC(=O)O` [16(S),16-methyl-13-dehydro PGE2], the “substrate for the enzyme PGDH” value with PGDH is “not substrates for the enzyme PGDH”. In addition, in data set [6], the “gastric anti-ulcer properties / activity” value is given as “potent gastric anti-ulcer properties”.
Regarding `CCCCC(C)(C)[C@H](O)/C=C/[C@H]1[C@H](O)CC(=O)[C@@H]1C/C=C\CCCC(=O)O` [16,16-dimethyl PGE2], in data set [1], the TD50 turned out to be 0.0005 mg/kg and the selectivity ratio came to 10. Moreover, the “ED50 for cytoprotection” value in [4] is on record as “lower value of the ED50”.
As for `CCCCC[C@H](O)/C=C/[C@H]1[C@H](O)CC(=O)[C@@H]1C/C=C\CCCC(=O)O` [PGE2], the ED50 in the data set on stomach mucosa is 0.025 mg/kg. The selectivity ratio in [1] turned out to be 30. Also, the “Enteropooling Dose (ED50 for enteropooling)” value in the data set on small intestine (in vivo) stood at 0.750 mg/kg. In addition, the “stability” value in data set [5] was “readily metabolized”.
`CCCCC[C@H](O)/C=C/[C@@H]1[C@@H](C/C=C\CCCC(=O)OC)[C@@H](O)C[C@H]1O` [PGF2α trans OH (a)]: the Cytoprotection % is recorded as -19% in the data set with stomach mucosa (dose 0.001 mg/kg), 1.7% in the data set with stomach mucosa (dose 0.01 mg/kg), -17% with stomach mucosa (dose 0.1 mg/kg) and 82% with stomach mucosa (setting [7]).
Regarding `CCCCCC(=O)C#C[C@@H]1[C@@H](C/C=C\CCCC(=O)OC)[C@@H](O)C[C@H]1O` [PGF2α triple oxo (a), 13,14-didehydro-15-keto PGF2α methyl ester], the “cytoprotective potency” value with stomach mucosa (compared with PGF2α itself (tests nos. 7-10)) was “much more potent cytoprotective agent”. Also, the Cytoprotection % in the data set with stomach mucosa (dose 0.001 mg/kg) is 6%; in the data set with stomach mucosa (dose 0.01 mg/kg), 23%; with stomach mucosa (dose 0.1 mg/kg) it was 50%; in the data set with stomach mucosa (setting [7]), 98%.
